Laboratory results from patent US20220361497A1, “METHOD FOR CONTROLLING GROWTH OF MICROORGANISMS AND/OR BIOFILMS IN AN INDUSTRIAL PROCESS” (Kemira Oyj, priority 2017, published 2022).

What was measured:
Format in all cases: cell-based
[1] = test system: Meiothermus silvanus biofilms; test: Removal of existing (preformed) biofilm, 96-microwell plate with peg lids, Crystal Violet staining; settings: SPW, 45° C., 150 rpm; for Biofilm quantity after 24 h pre-growth and 24 h contact time, Abs. at 595 nm / Biofilm reduction after 24 h pre-growth and 24 h contact time: separated isomer
Text: (§1) Pure cultures of Meiothermus silvanus, a microbe species commonly found in paper machine biofilms (Ekman J, Journal of Industrial Microbiology & Biotechnology 34:203-211) and Pseudoxanthomonas taiwanensis, another species commonly found in paper machine environments (Desjardins, E & Beaulieu, C, Journal of Industrial Microbiology & Biotechnology 30:141-145) were used to study the efficacy of various chemicals to prevent biofilm formation.
(§2) Biofilm tests were done in either synthetic commercial R2-broth (Lab M Ltd, UK) or fibre-containing synthetic paper machine water, SPW (prepared according to Peltola et al., J. Ind. Microbiol. Biotechnol. 2011, 38: 1719-1727) using 96-microwell plate wells with peg lids (Thermo Fischer Scientific Inc., USA). Plates were incubated at 45° C. with a rotary shaking (150 rpm) providing high flow in each well.
(§3) For experiments of removing already existing (preformed) biofilm wells of 96-microwell plates with peg-lids were filled with SPW, inoculated with the pure bacterial cultures. Biofilm was grown for 24 hours without addition of any chemical compound to be tested. In some experiments after 24 hours the procedure was repeated by emptying the wells and by addition of a fresh solution of SPW inoculated with pure bacterial culture, again without any test chemical compound. The original peg-lid was put back in place and biofilm was allowed to grow for additional 24 h, i.e., in total 48 h.
(§4) After 24 or 48 hours after starting the test, the wells were emptied and a fresh solution of SPW, inoculated with the pure bacterial cultures and with different amounts of chemical compounds to be tested were added and the original peg-lid was placed back in place. After an additional 2 or 24 hours the wells were emptied, rinsed and the peg lid and wells were left to dry.
(§5) The amount of biofilm formed on the microwells, and peg surfaces was quantified with a staining solution by adding 200 μl of 1% Crystal Violet (Merck Millipore KGaA, Germany) in methanol to each well and placing the peg-lid back on. After 3 minutes the wells were emptied, and the wells and pegs were rinsed 3 times with tap water. The attached Crystal Violet was dissolved into ethanol and the absorbance at 595 nm was measured. The values shown in the following tables are average absorbance from 8 replicate wells and pegs.
(§6) All absorbance values in Examples 1-6 are given actual measured values. In calculation for biofilm reduction percentages it was taken in account that the SPW alone for 2 days without any bacterial inoculum gave a background value of 0.14.

[2] = test system: Meiothermus silvanus biofilms; test: Prevention of biofilm formation, 96-microwell plate with peg lids, Crystal Violet staining; settings: for Biofilm quantity after 48 h contact time, Abs. at 595 nm / Biofilm reduction after 48 h contact time / Biofilm quantity after 48 h contact time in SPW, Abs. at 595 nm / Biofilm reduction after 48 h contact time in SPW: SPW; for Biofilm quantity after 48 h contact time, Abs. at 595 nm / Biofilm reduction after 48 h contact time: 45° C., 150 rpm
Text: as §1, §2
(§7) For experiments of preventing biofilm formation wells of 96-microwell plates with peg-lids were filled with R2-broth or SPW, inoculated with the pure bacterial cultures and treated with different amounts of chemical compounds to be tested. Peg-lid was put on. After 24 hours the wells were emptied and a fresh solution of pure culture containing SPW or R2 broth with different amounts of test chemicals were added to the wells and the original peg-lid was put back in place. After an additional 24 hours, i.e., 48 hours after starting the test, the wells were emptied, rinsed and the peg lid and wells were left to dry.
as §5, §6

[3] = test system: Pseudoxanthomonas taiwanensis biofilms; test: as above; settings: for Biofilm quantity after 48 h contact time, Abs. at 595 nm / Biofilm reduction after 48 h contact time: SPW, 45° C., 150 rpm
Text: as §1, §2, §7, §5, §6

[4] = test system: Pseudoxanthomonas taiwanensis biofilms; test: Removal of existing (preformed) biofilm, 96-microwell plate with peg lids, Crystal Violet staining; settings: SPW; for Biofilm quantity after 48 h pre-growth and 24 h contact time, Abs. at 595 nm / Biofilm reduction after 48 h pre-growth and 24 h contact time: 45° C., 150 rpm
Text: as §1, §2, §3, §4, §5, §6

[5] = separated isomer, dosage 0.1 mg/l active
[6] = separated isomer, dosage 0.2 mg/l active
[7] = Compound B dosage 0.1 mg/l active
[8] = Compound B dosage 0.25 mg/l active
[9] = Compound B dosage 1 mg/l active
[10] = Compound B dosage 3 mg/l active
[11] = Compound B dosage 10 mg/l active

Cc1ccc(S(=O)(=O)C=CC#N)cc1 [E-isomer of Compound A, 3-[(4-methylphenyl)sulfonyl]-2-propenenitrile]
Biofilm quantity after 24 h pre-growth and 24 h contact time, Abs. at 595 nm ([1]; dosage 0.2 mg/l active): 0.90 | Biofilm reduction after 24 h pre-growth and 24 h contact time ([1]; dosage 0.2 mg/l active): 67.6% | Biofilm quantity after 24 h pre-growth and 24 h contact time, Abs. at 595 nm ([1]; dosage 1 mg/l active): 0.26 | Biofilm reduction after 24 h pre-growth and 24 h contact time ([1]; dosage 1 mg/l active): 95.0% | Biofilm quantity after 48 h contact time, Abs. at 595 nm [2, 5]: 0.40 | Biofilm reduction after 48 h contact time [2, 5]: 88.9% | Biofilm quantity after 48 h contact time, Abs. at 595 nm [2, 6]: 0.16 | Biofilm reduction after 48 h contact time [2, 6]: 99.3% | Biofilm quantity after 48 h contact time, Abs. at 595 nm [3, 5]: 0.36 | Biofilm reduction after 48 h contact time [3, 5]: 90.6% | Biofilm quantity after 48 h contact time, Abs. at 595 nm [3, 6]: 0.16 | Biofilm reduction after 48 h contact time [3, 6]: 99.1%

Nc1ccc(S(=O)(=O)Nc2nccs2)cc1 [Compound B, 4-amino-N-2-thiazolyl-benzenesulphonamide]
Biofilm quantity after 48 h contact time, Abs. at 595 nm [2, 7]: 0.62 | Biofilm reduction after 48 h contact time [2, 7]: 34.4% | Biofilm quantity after 48 h contact time, Abs. at 595 nm [2, 8]: 0.18 | Biofilm reduction after 48 h contact time [2, 8]: 94.0% | Biofilm quantity after 48 h contact time, Abs. at 595 nm [2, 9]: 0.15 | Biofilm reduction after 48 h contact time [2, 9]: 99.1% | Biofilm quantity after 48 h contact time, Abs. at 595 nm [2, 10]: 0.16 | Biofilm reduction after 48 h contact time [2, 10]: 97.9% | Biofilm quantity after 48 h contact time, Abs. at 595 nm [2, 11]: 0.18 | Biofilm reduction after 48 h contact time [2, 11]: 94.0% | Biofilm quantity after 48 h contact time, Abs. at 595 nm [3, 8]: 2.35 | Biofilm reduction after 48 h contact time [3, 8]: 2.6% | Biofilm quantity after 48 h contact time, Abs. at 595 nm [3, 9]: 2.04 | Biofilm reduction after 48 h contact time [3, 9]: 16.3% | Biofilm quantity after 48 h contact time, Abs. at 595 nm [3, 10]: 0.84 | Biofilm reduction after 48 h contact time [3, 10]: 69.3% | Biofilm quantity after 48 h contact time, Abs. at 595 nm [3, 11]: 0.54 | Biofilm reduction after 48 h contact time [3, 11]: 82.4%

Cc1ccc(S(=O)(=O)C=CC#N)cc1 [Compound A, 3-[(4-methylphenyl)sulfonyl]-2-propenenitrile]
Biofilm quantity after 48 h pre-growth and 2 h contact time, Abs. at 595 nm ([1]; dosage 0.5 mg/l active): 1.20 | Biofilm reduction after 48 h pre-growth and 2 h contact time ([1]; dosage 0.5 mg/l active): 8.0% | Biofilm quantity after 48 h pre-growth and 2 h contact time, Abs. at 595 nm ([1]; dosage 1 mg/l active): 1.11 | Biofilm reduction after 48 h pre-growth and 2 h contact time ([1]; dosage 1 mg/l active): 16.3% | Biofilm quantity after 48 h pre-growth and 2 h contact time, Abs. at 595 nm ([1]; dosage 2 mg/l active): 0.99 | Biofilm reduction after 48 h pre-growth and 2 h contact time ([1]; dosage 2 mg/l active): 26.6% | Biofilm quantity after 48 h pre-growth and 24 h contact time, Abs. at 595 nm ([4]; dosage 0.2 mg/l active): 1.73 | Biofilm reduction after 48 h pre-growth and 24 h contact time ([4]; dosage 0.2 mg/l active): 32.2% | Biofilm quantity after 48 h pre-growth and 24 h contact time, Abs. at 595 nm ([4]; dosage 0.5 mg/l active): 0.13 | Biofilm reduction after 48 h pre-growth and 24 h contact time ([4]; dosage 0.5 mg/l active): 100.2% | removal of already formed biofilm (in words) ([4]; single dosage of 0.5 mg/l active compound, 48-hour pre-growth, 24 hours after addition): removed all of the biofilm | Biofilm quantity after 48 h contact time, Abs. at 595 nm ([2]; dosage 0.01 mg/l active): 0.80 | Biofilm reduction after 48 h contact time ([2]; dosage 0.01 mg/l active): 21.4% | Biofilm quantity after 48 h contact time, Abs. at 595 nm ([2]; dosage 0.03 mg/l active): 0.75 | Biofilm reduction after 48 h contact time ([2]; dosage 0.03 mg/l active): 27.4% | Biofilm quantity after 48 h contact time, Abs. at 595 nm ([2]; dosage 0.08 mg/l active): 0.58 | Biofilm reduction after 48 h contact time ([2]; dosage 0.08 mg/l active): 47.6% | Biofilm quantity after 48 h contact time, Abs. at 595 nm ([2]; dosage 0.13 mg/l active): 0.22 | Biofilm reduction after 48 h contact time ([2]; dosage 0.13 mg/l active): 90.5% | Biofilm quantity after 48 h contact time, Abs. at 595 nm ([2]; dosage 0.20 mg/l active): 0.15 | Biofilm reduction after 48 h contact time ([2]; dosage 0.20 mg/l active): 98.8% | biofilm reduction effect ([2]; dosage of 0.13 mg/l active, synthetic paper machine water, high temperature, fibres present, high flow): over 90% | Biofilm quantity after 48 h contact time, Abs. at 595 nm ([3]; dosage 0.01 mg/l active): 1.42 | Biofilm reduction after 48 h contact time ([3]; dosage 0.01 mg/l active): 4.5% | Biofilm quantity after 48 h contact time, Abs. at 595 nm ([3]; dosage 0.03 mg/l active): 1.26 | Biofilm reduction after 48 h contact time ([3]; dosage 0.03 mg/l active): 16.4% | Biofilm quantity after 48 h contact time, Abs. at 595 nm ([3]; dosage 0.08 mg/l active): 0.88 | Biofilm reduction after 48 h contact time ([3]; dosage 0.08 mg/l active): 44.8% | Biofilm quantity after 48 h contact time, Abs. at 595 nm ([3]; dosage 0.13 mg/l active): 0.55 | Biofilm reduction after 48 h contact time ([3]; dosage 0.13 mg/l active): 69.4% | Biofilm quantity after 48 h contact time, Abs. at 595 nm ([3]; dosage 0.20 mg/l active): 0.39 | Biofilm reduction after 48 h contact time ([3]; dosage 0.20 mg/l active): 81.3%

Gramicidin [reference compound]
Biofilm quantity after 48 h contact time in SPW, Abs. at 595 nm ([2]; Gramicidin dosage 0.2 mg/l): 1.33 | Biofilm reduction after 48 h contact time in SPW ([2]; Gramicidin dosage 0.2 mg/l): 2.5% | Biofilm quantity after 48 h contact time in SPW, Abs. at 595 nm ([2]; Gramicidin dosage 1 mg/l): 1.41 | Biofilm reduction after 48 h contact time in SPW ([2]; Gramicidin dosage 1 mg/l): −4.1% | Biofilm quantity after 48 h contact time in SPW, Abs. at 595 nm ([2]; Gramicidin dosage 3 mg/l): 0.45 | Biofilm reduction after 48 h contact time in SPW ([2]; Gramicidin dosage 3 mg/l): 74.6% | Biofilm quantity after 48 h contact time in SPW, Abs. at 595 nm ([2]; Gramicidin dosage 10 mg/l): 0.19 | Biofilm reduction after 48 h contact time in SPW ([2]; Gramicidin dosage 10 mg/l): 95.9% | Biofilm quantity after 48 h contact time in SPW, Abs at 595 nm ([3]; Gramicidin dosage 3 mg/l): 2.25 | Biofilm reduction after 48 h contact time in SPW ([3]; Gramicidin dosage 3 mg/l): 5.4% | Biofilm quantity after 48 h contact time in SPW, Abs at 595 nm ([3]; Gramicidin dosage 10 mg/l): 2.41 | Biofilm reduction after 48 h contact time in SPW ([3]; Gramicidin dosage 10 mg/l): −1.8% | Biofilm quantity after 48 h contact time in SPW, Abs at 595 nm ([3]; Gramicidin dosage 25 mg/l): 2.42 | Biofilm reduction after 48 h contact time in SPW ([3]; Gramicidin dosage 25 mg/l): −2.2%

N#CC(Br)(Br)C(N)=O [DBNPA, 2,2-dibromo-3-nitrilopropionamide, reference compound]
dosage required to reach same (over 90%) biofilm reduction efficacy ([2]; active compound, synthetic paper machine water, high temperature, fibres present, high flow): 1 mg/L

Cc1ccc(S(=O)(=O)C=CC#N)cc1 [Z-isomer of Compound A, 3-[(4-methylphenyl)sulfonyl]-2-propenenitrile]
Biofilm quantity after 24 h pre-growth and 24 h contact time, Abs. at 595 nm ([1]; dosage 0.2 mg/l active): 0.81 | Biofilm reduction after 24 h pre-growth and 24 h contact time ([1]; dosage 0.2 mg/l active): 71.3% | Biofilm quantity after 24 h pre-growth and 24 h contact time, Abs. at 595 nm ([1]; dosage 1 mg/l active): 0.27 | Biofilm reduction after 24 h pre-growth and 24 h contact time ([1]; dosage 1 mg/l active): 94.6% | Biofilm quantity after 48 h contact time, Abs. at 595 nm [2, 5]: 0.16 | Biofilm reduction after 48 h contact time [2, 5]: 99.1% | Biofilm quantity after 48 h contact time, Abs. at 595 nm [2, 6]: 0.15 | Biofilm reduction after 48 h contact time [2, 6]: 99.4% | Biofilm quantity after 48 h contact time, Abs. at 595 nm [3, 5]: 0.16 | Biofilm reduction after 48 h contact time [3, 5]: 99.3% | Biofilm quantity after 48 h contact time, Abs. at 595 nm [3, 6]: 0.16 | Biofilm reduction after 48 h contact time [3, 6]: 99.3%
